Results: publication PMC10135059, “Kaurane-Type Diterpenoids as Potential Inhibitors of Dihydrofolate Reductase-Thymidylate Synthase in New World Leishmania Species” (Antibiotics, 2023)

Experiments:
[1] = biological target: L. chagasi PTR1 and DHFR-TS; set-up: method as in PMID 31409157; conditions: L. chagasi PTR1 vs DHFR-TS; cited from earlier work
[2] = biological target: T1, L. major dihydrofolate reductase (LmDHFR), recombinant LmDHFR-TS (Leishmania major, UniProt P07382); test: LmDHFR-TS enzyme inhibition assay (spectrophotometric, standard DHFR conditions); assay type: biochemical
T1 construct: made in house
T1 sequence (P07382 whole entry): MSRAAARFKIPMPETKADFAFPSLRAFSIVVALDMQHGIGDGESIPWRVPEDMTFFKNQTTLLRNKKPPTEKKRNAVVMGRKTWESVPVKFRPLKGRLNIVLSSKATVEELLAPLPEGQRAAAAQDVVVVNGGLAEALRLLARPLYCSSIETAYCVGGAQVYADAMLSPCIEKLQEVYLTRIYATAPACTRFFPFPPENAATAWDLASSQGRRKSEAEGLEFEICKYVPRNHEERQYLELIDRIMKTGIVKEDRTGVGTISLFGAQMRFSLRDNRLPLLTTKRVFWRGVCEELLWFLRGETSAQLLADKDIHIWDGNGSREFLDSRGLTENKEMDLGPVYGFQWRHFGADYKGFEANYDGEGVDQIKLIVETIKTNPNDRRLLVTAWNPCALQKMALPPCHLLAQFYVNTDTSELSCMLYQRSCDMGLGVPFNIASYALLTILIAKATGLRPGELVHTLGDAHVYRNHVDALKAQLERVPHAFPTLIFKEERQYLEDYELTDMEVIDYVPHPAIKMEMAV
Description: Then, using the Cheng–Prusoff equation and assuming reversible competitive inhibition and a 1:1 stoichiometry, the apparent inhibitory constant (Ki^app) was calculated for the selected kauranes using the IC50 results, as shown in Table 1.
Purification and kinetic characterization of the recombinant LmDHFR-TS protein was performed according to the previously reported procedures. The in vitro evaluation of selected diterpenoids (i.e., 4, 135, 301, 302, 301a, and 302a) for inhibitory activity against LmDHFR-TS was conducted using a spectrophotometric assay under standard DHFR conditions. The assay consisted of LmDHFR (2.7 nM), bovine serum albumin (BSA, 1 mg/mL), N-[tris(hydroxymethyl)-methyl]-2-aminoethanesulfonic acid (TES) buffer (100 mM, pH 7.0, […] β-mercaptoethanol, 2 mM ethylenediaminetetraacetic acid (EDTA)), and nicotinamide adenine dinucleotide phosphate (NADPH, 100 μM) with varying concentrations of the test compounds (0.1–128 μM). The reaction was initiated by adding the substrate (7,8-dihydrofolate (H2F), 20 μM) and was monitored for 360 s at 340 nm (i.e., oxidation of NADPH to NADP+) to determine the initial reaction rate (Vo) through linear regression analysis of the resulting absorbance profile. […] The Ki^app values were finally calculated using the Cheng–Prusoff equation for competitive inhibition with a 1:1 stoichiometry and reversible inhibitor-binding reactions: Ki^app = IC50/(1 + [S]/Km), where [S] is the substrate (H2F) concentration and Km is the Michaelis constant.

[3] = system: Leishmania major PTR1 (LmPTR1); set-up: method as in PMID 34063939; conditions: previous study; cited from earlier work
[4] = biological target: T1, L. major dihydrofolate reductase (LmDHFR), recombinant LmDHFR-TS; test: LmDHFR-TS enzyme inhibition assay (spectrophotometric, standard DHFR conditions); assay type: biochemical; conditions: cutoff pIC50 value of the L. major machine learning model
[5] = IC50, LmDHFR 2.7 nM, NADPH 100 μM, H2F 20 μM, test compounds 0.1–128 μM, triplicate

SMILES	Ki^Lc^PTR1/Ki^Lc^DHFR-TS ratio [1]	Ki [2]	IC50 [2, 5]	classification against PTR1 [3]	classification against DHFR-TS [4]	IC50 ([2]; pIC50, pIC50 = −log IC50)	reduction of Ki^app compared to kauranes 301 and 302 ([2]; effect of p-hydroxyl group, 301a vs 301, 302a vs 302)	half-maximal inhibitory concentrations (IC50) against PTR1 [3]
Nc1nc(N)c(Cc2ccccc2)c(CC2CCCCC2)n1 [2,4-diamine, 5-benzyl-6-(cyclohexylmethyl) pyrimidine-2,4-diamine]	0.68	–	–	–	–	–	–	–
CC1(C)OCC2(CC34CCC5C(C)(C)C(=O)CCC5(C)C3CCC2C4)O1 (stereo not drawn) [structure 4, 16ß,17-Isopropylidenedioxy-ent-kauran-3-one]	–	0.81 µM	7.6 µM	–	–	–	–	–
C=C1CC23CCC4C(C)(C(=O)OC5C=C(C)C(O)CC5C(C)C)CCCC4(C)C2CCC1C3 (stereo not drawn) [structure 135, 2β-hydroxy-menth-6-en-5β-yl ent-kaurenoate]	–	1.2 µM	11.2 µM	–	–	–	–	–
C=C1CC23CCC4C(C)(C(=O)O)C(OC(=O)C=Cc5ccccc5)CCC4(C)C2(O)CCC1C3 (stereo not drawn) [structure 301, 3α-cinnamoyloxy-9β-hydroxy-ent-kaur-16-en-19-oic Acid]	–	0.94 µM	8.8 µM	inactive	active	< 10 µM	–	–
C=C1CC23CCC4C(C)(C(=O)O)C(OC(=O)C=Cc5ccc(O)cc5)CCC4(C)C2(O)CCC1C3 (stereo not drawn) [structure 301a, 3α-p-coumaroyloxy-9β-hydroxy-ent-kaur-16-en-19-oic acid]	–	0.85 µM	7.9 µM	inactive	–	< 10 µM	10%	–
C=C1CC23CCC4C(C)(CCC(OC(=O)C=Cc5ccccc5)C4(C)C(=O)O)C2CCC1C3 (stereo not drawn) [structure 302, 3α-cinnamoyloxy-ent-kaur-16-en-19-oic acid]	–	0.68 µM	6.3 µM	–	–	< 10 µM	–	less than 10 µg/mL
